Measurements published in patent US10336746B1, “RAD51 inhibitors” (Cyteir Therapeutics, Inc., priority 2017, dated 2019).
pEC50: −log10 of the molar value. Like-named read-outs stand apart in the source and are kept apart here.

Key:
[1] = tested on: SNU-1 (Gastric); assay: Cell line screen, SNU-1; assay type: cell-based; settings: Homo sapiens, SNU1, AICDA Expression Negative
Method: (§1) The activity of the claimed compounds was measured in a variety of cell lines with different expression levels of activation induced cytidine deaminase (AICDA). The potency assay was repeated in all of the listed cell lines and the EC50 values recorded.

[2] = tested on: U-698-M (Lymphoma); assay: Cell line screen, U-698-M; assay type: cell-based; settings: AICDA Expression High
Method: as §1

[3] = tested on: CCRF-SB (Leukemia); assay: Cell line screen, CCRF-SB; assay type: cell-based; settings: Homo sapiens, AICDA Expression High
Method: as §1

[4] = tested on: ARPE19/HPV16 (HPV Immortalized RPE); assay: Cell line screen, ARPE19/HPV16; assay type: cell-based; settings: ARPE-19, AICDA Expression Negative
Method: as §1

[5] = tested on: WI-38 cells (AID negative); assay: Primary screening cell killing assay repeated in WI-38 cells (AID negative); assay type: cell-based; settings: Homo sapiens, 168 h, cell death on Day 7, Cell-Titer Glo
Procedure, shortened: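 Cell-killing counter-screen in AID-negative WI-38 cells, probing RAD51 inhibition via AID/RAD51 synthetic lethality. Viability luminescence (RLU) was media-subtracted, normalized to DMSO wells, and converted to percent kill (1 − normalized RLU) × 100; EC50 came from non-linear regression on a semi-log scale.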

[6] = tested on: KYSE-70 (Head and Neck); assay: Cell line screen, KYSE-70; assay type: cell-based; settings: Homo sapiens, AICDA Expression Low
Method: as §1

[7] = Bi-directional Caco-2 permeability; assay type: in vitro ADME; settings: human; for efflux ratio at 90 min: Caco-2, read-out: BA/AB Ratio; for Papp A→B at 90 min: Caco-2, apical to basolateral, read-out: AB Papp (cm/sec × 10^6); for Papp A→B at 90 min / Papp B→A at 90 min: 37 C, up to 90 minutes; for Papp B→A at 90 min: Caco-2, basolateral to apical, read-out: BA Papp (cm/sec × 10^6)
Method: Bi-directional Caco-2 permeability was assayed. Caco-2 cells were seeded onto permeable polycarbonate supports and allowed to differentiate for about 3 weeks prior to being used in the assays. The cells were then exposed to the compounds from either the apical or basolateral sides and incubated at 37 C for up to 90 minutes under light agitation. Compound transport was then measured using LC/MS/MS analysis at 30, 60, and 90 minutes.

[8] = tested on: WI-38 (Normal Human Lung Fibroblast); assay: Cell line screen, WI-38; assay type: cell-based; settings: AICDA Expression Negative
Method: as §1

[9] = tested on: TOV-1120D (Ovary); assay: Cell line screen, TOV-1120D; assay type: cell-based; settings: AICDA Expression Negative
Method: as §1

[10] = tested on: KYSE-510 (Head and Neck); assay: Cell line screen, KYSE-510; assay type: cell-based; settings: Homo sapiens, AICDA Expression Negative
Method: as §1

[11] = Pharmacokinetic (PK) study, plasma by LC-MS; assay type: in vivo, Rat; settings: po @ 80 mg/kg (30% PEG400, 10% Vitamin E TPGS in water); for half-life: plasma
Method: PK studies in mice were used to determine the fate of the compounds in a whole organism. Rats were treated with the compounds either orally of via IV at the indicated doses and followed for up to 24 hours. Plasma samples were taken at different time points and analyzed by LC-MS.

[12] = tested on: Daudi (Lymphoma); assay: Cell line screen, Daudi; assay type: cell-based; settings: Homo sapiens, AICDA Expression High
Method: as §1

[13] = tested on: OV56 (Ovary); assay: Cell line screen, OV56; assay type: cell-based; settings: AICDA Expression Low
Method: as §1

[14] = Caco-2, Caco-2, AB direction, read-out: AB Recovery %
[15] = Caco-2, Caco-2, BA direction, read-out: BA Recovery %

Structure (SMILES) | pEC50 [1] | pEC50 [2] | pEC50 [3] | pEC50 [4] | pEC50 [5] | pEC50 [6] | recovery at 90 min [7, 14] [%] | recovery at 90 min [7, 15] [%] | efflux ratio at 90 min [7] | Papp A→B at 90 min [7] [×10⁻⁶ cm/s] | Papp B→A at 90 min [7] [×10⁻⁶ cm/s] | pEC50 [8] | pEC50 [9] | pEC50 [10] | F (%) @ 5 mg/kg ([11]; Rat Female) [%] | F (%) @ 5 mg/kg ([11]; Rat Male) [%] | half-life ([11]; Rat Female) [h] | half-life ([11]; Rat Male) [h] | pEC50 [12] | pEC50 [13]
CC(C)OC(=O)N[C@H]1CC[C@H](c2ncc(-c3ccc(NC(=O)NCc4ccccc4)cc3S(=O)(=O)NC(C)(C)C)s2)CC1 [Ex. 66A, trans-isopropyl N-[4-[5-[4-(benzylcarbamoylamino)-2-(tert-butylsulfamoyl)phenyl]thiazol-2-yl]cyclohexyl]carbamate] | 6.22 | 7.06 | 6.74 | < 5.00 | < 6.00 | 5.58 | 64.9 | 81.2 | 1.4 | 2.9 | 3.9 | < 5.00 | 5.62 | 5.35 | 3.31 | 2.55 | 2.59 | 1.86 | 7.74 | 5.23
CC(C)OC(=O)Nc1ccc(-c2cnc([C@H]3CC[C@H](NC(=O)OC(C)C)CC3)s2)c(S(=O)(=O)NC(C)(C)C)c1 [Ex. 67A, trans-isopropyl N-[3-(tert-butylsulfamoyl)-4-[2-[4-(isopropoxycarbonylamino)cyclohexyl]thiazol-5-yl]phenyl]carbamate] | 5.53 | 6.10 | 6.03 | < 5.00 | < 6.00 | 5.58 | 50.7 | 78.6 | 0.7 | 10.5 | 6.9 | < 5.00 | 5.31 | 5.47 | 86.5 | 46.9 | 11.5 | 6.46 | 6.51 | 5.14
